# Measurements published in the SangsterLogP compilation.
# Experiment: method code SF-AS, from DOI: 10.1016/0009-2797(77)90026-6
row,Compound,logP
1,CC1C(C)N(N=O)C(C)C(C)N1N=O (configuration not stated),0.91
2,COCCN(CCOC)N=O,-0.38
3,O=NN1CCC(=O)CC1,-0.47
4,CC1CCCCN1N=O (configuration not stated),0.71
5,O=NN1CC=CCC1,1.18
6,O=NN1CCCC(O)C1 (configuration not stated),-0.47
7,O=NN1CCC(c2ccccc2)CC1,2.59
8,N#CCN(CC#N)N=O,0.04
9,CC1CCCN(N=O)C1 (configuration not stated),0.99
10,O=NN1CCC(O)CC1,-0.89
11,CC1CN(N=O)CCN1N=O (configuration not stated),-0.28
12,O=NN(CC(F)(F)F)CC(F)(F)F,2.15
13,CC1CC(C)CN(N=O)C1 (configuration not stated),1.53
14,O=NN1CCCN(N=O)CC1,-0.51
15,CC1CN(N=O)CC(C)N1 (configuration not stated),0.73
16,CC1CCCC(C)N1N=O (configuration not stated),1.36
17,CN(CC(C)(C)C)N=O,1.34
18,O=NN1CCNCC1,0.18
19,CC1(C)CCCC(C)(C)N1N=O,2.49
20,CCOCCN(CCOCC)N=O,0.79
21,O=NN1CCCCC1,0.63
22,O=NN1CCC(Cl)C(Cl)C1 (configuration not stated),1.04
23,O=NN1CCSCC1,0.4
24,CCCCCCCCCCCCN(C)N=O,2.18

row,Compound,logP
1,CCN(N=O)C(=O)N(C)C,0.71
2,CN1CCN(N=O)CC1,0.2
3,CCN(CC)C(=O)N(CC)N=O,1.54
4,O=NN1CCN(N=O)CC1,-0.85
5,O=NN1CCCCCCCC1,2.04
6,CC1CN(N=O)CC(C)N1C(=O)c1ccccc1 (configuration not stated),1.41
7,CCN(CC)C(=O)N(C)N=O,1.11
8,O=NN1CCCCCCC1,1.48
9,CC1CN(C(=O)c2ccccc2)CC(C)N1N=O (configuration not stated),1.04
10,N#CCCN(CCC#N)N=O,0.08
11,CC1CN(N=O)CC(C)N1N=O (configuration not stated),0.08
12,O=NN1CCCC1,-0.19
13,CC1CCC(C)N1N=O (configuration not stated),0.86
14,CN(N=O)C1CCCCC1,1.43
15,CC1CN(N=O)C(C)CN1N=O (configuration not stated),0.15
16,O=NN1CC=CC1,0.26
17,CN(C)C(=O)N(C)N=O,0.36
18,CC1CN(N=O)CC(C)O1 (configuration not stated),0.32
19,CC1CCN(N=O)CC1,1.05
20,O=NN1CCC(Br)C(Br)C1 (configuration not stated),1.23
21,CC1C(c2ccccc2)OCCN1N=O (configuration not stated),2.09
22,CC(C)(C)C1CCN(N=O)CC1,2.54
23,O=NN1CCCCCC1,0.92
